This passage reports EC50 results from patent US9409884B2 (Rigel Pharmaceuticals, Inc., priority 2012, dated 2016).

As a reminder, the EC50 is the concentration at which the effect is half-maximal. Low values mean a more potent agent, high ones a less potent agent.

Some results are limits rather than exact numbers.

One assay has as its target AMPK. Nature of the assay: AMPK activation, enzyme-linked immunosorbent assay. In kind it is biochemical. The conditions noted are these: Table 13, compounds of Table 6. The method, boiled down:
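AMPK activation by test compounds was measured by enzyme-linked immunosorbent assay.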
Take `CS(=O)(=O)c1ccc(CN2CCN(C(=O)c3ccc4oc(C(=O)NC5CCN(Cc6ccc(OC(F)(F)C(F)F)cc6)CC5)cc4c3)CC2)cc1` [Compound 6-156, 5-(4-(4-(methylsulfonyl)benzyl)piperazine-1-carbonyl)-N-(1-(4-(1,1,2,2-tetrafluoroethoxy)benzyl)piperidin-4-yl)benzofuran-2-carboxamide]: the EC50 was under 100 nM. Same read-out and setting: the same measure for `CS(=O)(=O)c1ccc(CN2CCN(C(=O)c3ccc4oc(C(=O)NC5CCN(Cc6cccc(OC(F)(F)C(F)F)c6)CC5)cc4c3)CC2)cc1` [Compound 6-157, 5-(4-(4-(methylsulfonyl)benzyl)piperazine-1-carbonyl)-N-(1-(3-(1,1,2,2-tetrafluoroethoxy)benzyl)piperidin-4-yl)benzofuran-2-carboxamide]: under 100 nM; for `CS(=O)(=O)c1ccc(CN2CCN(C(=O)c3ccc4oc(C(=O)NC5CCN(Cc6ccc(OC(F)(F)F)c(Cl)c6)CC5)cc4c3)CC2)cc1` [Compound 6-158, N-(1-(3-chloro-4-(trifluoromethoxy)benzyl)piperidin-4-yl)-5-(4-(4-(methylsulfonyl)benzyl)piperazine-1-carbonyl) benzofuran-2-carboxamide]: 100 to 1000 nM.

Turning to `CS(=O)(=O)c1ccc(CN2CCN(C(=O)c3ccc4oc(C(=O)NC5CCN(Cc6ccc(S(=O)(=O)N7CCCC7)cc6)CC5)cc4c3)CC2)cc1` [Compound 6-159, 5-(4-(4-(methylsulfonyl)benzyl)piperazine-1-carbonyl)-N-(1-(4-(pyrrolidin-1-ylsulfonyl)benzyl)piperidin-4-yl)benzofuran-2-carboxamide], the EC50 lay within 1000 to 10000 nM. Turning to `COc1ccc(CN2CCC(NC(=O)c3cc4cc(C(=O)N5CCN(Cc6ccc(S(=O)(=O)N7CCCC7)cc6)CC5)ccc4o3)CC2)cc1F` [Compound 6-160, N-(1-(3-fluoro-4-methoxybenzyl)piperidin-4-yl)-5-(4-(4-(pyrrolidin-1-ylsulfonyl)benzyl)piperazine-1-carbonyl)benzofuran-2 - carboxamide], the EC50 is under 100 nM. The same measure, in the same setting: as for `CCNS(=O)(=O)c1ccc(CN2CCN(C(=O)c3ccc4oc(C(=O)NC5CCN(Cc6ccc(OC)c(F)c6)CC5)cc4c3)CC2)cc1` [Compound 6-161, 5-(4-(4-(N-ethylsulfamoyl)benzyl)piperazine-1-carbonyl)-N-(1-(3-fluoro-4-methoxybenzyl)piperidin-4-yl)benzofuran-2-carboxamide], the figure is under 100 nM; as for `COc1ccc(CN2CCC(NC(=O)c3cc4cc(C(=O)N5CCN(Cc6ccc(S(=O)(=O)N(C)C)cc6)CC5)ccc4o3)CC2)cc1F` [Compound 6-162], under 100 nM; as for `COc1ccc(CN2CCC(NC(=O)c3cc4cc(C(=O)N5CCN(Cc6ccc(S(=O)(=O)N7CCOCC7)cc6)CC5)ccc4o3)CC2)cc1F` [Compound 6-163, N-(1-(3-fluoro-4-methoxybenzyl)piperidin-4-yl)-5-(4-(4-(morpholinosulfonyl)benzyl)piperazine-1-arbonyl) benzofuran-2-carboxamide], under 100 nM. Still for that read-out and setting: the same measure for `COc1ccc(CN2CCC(NC(=O)c3cc4cc(C(=O)N5CCC(Oc6ccc(S(C)(=O)=O)cc6)CC5)ccc4o3)CC2)cc1` [Compound 6-164, N-(1-(4-methoxybenzyl)piperidin-4-yl)-5-(4-(4-(methylsulfonyl)phenoxy)piperidine-1-carbonyl) benzofuran-2-carboxamide]: under 100 nM.

Staying with this assay, now noted: Table 14, compounds of Table 7.
In the case of `CS(=O)(=O)c1ccc(OC2CCN(C(=O)c3ccc(C(=O)Nc4ccc(Oc5ccc(S(F)(F)(F)(F)F)cc5)nc4)cn3)CC2)cc1` [Compound 7-1, 6-(4-(4-(methylsulfonyl)phenoxy)piperidine-1-carbonyl)-N-(6-(4-(pentafluorosulfanyl)phenoxy)pyridin-3-yl)nicotinamide], the EC50 is 1000 to 10000 nM. Molecule `CS(=O)(=O)c1ccc(OC2CCN(C(=O)c3ccc(C(=O)Nc4ccc(Oc5ccc(S(F)(F)(F)(F)F)cc5)nc4)nc3)CC2)cc1` [Compound 7-2, 5-(4-(4-(methylsulfonyl)phenoxy)piperidine-1-carbonyl)-N-(6-(4-(pentafluorosulfanyl)phenoxy)pyridin-3-yl)picolinamide] yielded an EC50 of under 1000 nM. The molecule `COc1ccc(C(=O)C2CCN(C(=O)c3ccc(C(=O)Nc4ccc(Oc5ccc(S(F)(F)(F)(F)F)cc5)nc4)nc3)CC2)cc1` [Compound 7-3, 5-(4-(4-methoxybenzoyl)piperidine-1-carbonyl)-N-(6-(4-(pentafluorosulfanyl)phenoxy)pyridin-3-yl)picolinamide] returned an EC50 of under 1000 nM.

`O=C(Nc1ccc(Oc2ccc(S(F)(F)(F)(F)F)cc2)nc1)c1ccc(C(=O)N2CCC(C(=O)c3ccc(N4CCCC4)cc3)CC2)cn1` [Compound 7-4, 5-(4-(4-(pyrrolidin-1-yl)benzoyl)piperidine-1-carbonyl)-N-(6-(4-(pentafluorosulfanyl)phenoxy)pyridin-3-yl)picolinamide] displayed an EC50 of under 1000 nM. In the case of `N#Cc1ccc(OC2CCN(C(=O)c3ccc(C(=O)Nc4ccc(Oc5ccc(S(F)(F)(F)(F)F)cc5)nc4)nc3)CC2)cc1` [Compound 7-5, 5-(4-(4-cyanophenoxy)piperidine-1-carbonyl)-N-(6-(4-(pentafluorosulfanyl)phenoxy)pyridin-3-yl)picolinamide], the half-maximal effective concentration (EC50) is under 1000 nM.

The molecule `CC(C)S(=O)(=O)c1ccc(N2CCN(C(=O)c3ccc(C(=O)Nc4ccc(Oc5ccc(S(F)(F)(F)(F)F)cc5)nc4)nc3)CC2)cc1` [Compound 7-6, 5-(4-(4-(isopropylsulfonyl)phenyl)piperazine-1-carbonyl)-N-(6-(4-(pentafluorosulfanyl)phenoxy)pyridin-3-yl)picolinamide] yielded an EC50 of under 1000 nM.

In turn, `COc1ccc(C(=O)C2CCCN(C(=O)c3ccc(C(=O)NC4CCN(Cc5ccc(C#N)cc5)CC4)cn3)C2)cc1` (stereo not shown) [Compound 7-7, N-(1-(4-cyanobenzyl)piperidin-4-yl)-6-(3-(4-methoxybenzoyl)piperidine-1-carbonyl)nicotinamide] displayed an EC50 of 1000 to 10000 nM. Still for that read-out and setting: the same measure for `COc1ccc(CN2CCC(NC(=O)c3ccc(C(=O)N4CCCC(C(=O)c5ccc(OC)cc5)C4)nc3)CC2)cc1` (stereo not shown) [Compound 7-8, 6-(3-(4-methoxybenzoyl)piperidine-1-carbonyl)-N-(1-(4-methoxybenzyl)piperidin-4-yl)nicotinamide]: 1000 to 10000 nM.

`COc1ccc(C(=O)C2CCCN(C(=O)c3ccc(C(=O)NC4CCN(Cc5ccc(F)cc5)CC4)cn3)C2)cc1` (stereo not shown) [Compound 7-9, N-(1-(4-fluorobenzyl)piperidin-4-yl)-6-(3-(4-methoxybenzoyl)piperidine-1-carbonyl)nicotinamide] displayed an EC50 of 1000 to 10000 nM. The same measure, in the same setting: as for `COc1ccc(C(=O)C2CCCN(C(=O)c3ccc(C(=O)Nc4ccc(Oc5ccc(F)cc5)nc4)cn3)C2)cc1` (stereo not shown) [Compound 7-10, N-(6-(4-fluorophenoxy)pyridin-3-yl)-6-(3-(4-methoxybenzoyl)piperidine-1-carbonyl)nicotinamide], the figure is 1000 to 10000 nM; as for `COc1ccc(C(=O)C2CCCN(C(=O)c3ccc(C(=O)Nc4ccc(Oc5ccc(C(C)=O)cc5)nc4)cn3)C2)cc1` (stereo not shown) [Compound 7-11, N-(6-(4-acetylphenoxy)pyridin-3-yl)-6-(3-(4-methoxybenzoyl)piperidine-1-carbonyl)nicotinamide], 1000 to 10000 nM; as for `Cc1cc(OC2CCN(C(=O)c3ccc(C(=O)NC4CCN(Cc5ccc(C#N)cc5)CC4)cn3)CC2)ccc1S(C)(=O)=O` [Compound 7-13, N-(1-(4-cyanobenzyl)piperidin-4-yl)-6-(4-(3-methyl-4-(methylsulfonyl)phenoxy)piperidine-1-carbonyl) nicotinamide], 1000 to 10000 nM. Molecule `Cc1cc(OC2CCN(C(=O)c3ccc(C(=O)NC4CCN(Cc5ccc(OC(F)(F)F)cc5)CC4)cn3)CC2)ccc1S(C)(=O)=O` [Compound 7-14, 6-(4-(3-methyl-4-(methylsulfonyl)phenoxy)piperidine-1-carbonyl)-N-(1-(4-(trifluoromethoxy)benzyl)piperidin-4-yl)nicotinamide] returned an EC50 of 1000 to 10000 nM.

Turning to `Cc1cc(OC2CCN(C(=O)c3ccc(C(=O)Nc4ccc(Oc5ccc(C#N)cc5)nc4)cn3)CC2)ccc1S(C)(=O)=O` [Compound 7-15, N-(6-(4-cyanophenoxy)pyridin-3-yl)-6-(4-(3-methyl-4-(methylsulfonyl)phenoxy)piperidine-1-carbonyl) nicotinamide], the EC50 was 1000 to 10000 nM.

`COc1ccc(CN2CCC(NC(=O)c3ccc(C(=O)N4CCC(Oc5ccc(S(C)(=O)=O)c(C)c5)CC4)nc3)CC2)cc1` [Compound 7-16, N-(1-(4-methoxybenzyl)piperidin-4-yl)-6-(4-(3-methyl-4-(methylsulfonyl)phenoxy)piperidine-1-carbonyl) nicotinamide] yielded an EC50 of 1000 to 10000 nM. Same read-out and setting: as for `COCCN(C(=O)c1ccc(C(=O)N2CCC(C(=O)c3ccc(OC)cc3)CC2)nc1)C1CCN(Cc2ccc(C#N)cc2)CC1` [Compound 7-17, N-(1-(4-cyanobenzyl)piperidin-4-yl)-6-(4-(4-methoxybenzoyl)piperidine-1-carbonyl)-N-(2-methoxyethyl)nicotinamide], the figure is under 1000 nM; as for `COCCN(C(=O)c1ccc(C(=O)N2CCC(C(=O)c3ccc(OC)cc3)CC2)nc1)C1CCN(Cc2ccc(OC(F)(F)F)cc2)CC1` [Compound 7-18, 6-(4-(4-methoxybenzoyl)piperidine-1-carbonyl)-N-(2-methoxyethyl)-N-(1-(4-(trifluoromethoxy)benzyl)piperidin-4-yl)nicotinamide], under 1000 nM; as for `COc1ccc(C(=O)C2CCN(C(=O)c3ncc(C(=O)NC4CCN(Cc5ccc(C#N)cc5)CC4)cc3CCCNC(=O)CCOCCOCCOCCOCCNC(=O)CCCC[C@@H]3SC[C@@H]4NC(=O)N[C@@H]43)CC2)cc1` [Compound 7-19, N-(1-(4-cyanobenzyl)piperidin-4-yl)-5-(5,21-dioxo-25-((3aS,4S,6aR)-2-oxohexahydro-1H-thieno[3,4-d]imidazol-4-yl)-8,11,14,17-tetraoxa-4,20-diazapentacosyl)-6-(4-(4-methoxybenzoyl)piperidine-1-carbonyl)nicotinamide], 10000 to 20000 nM. Molecule `CC(=O)c1ccc(Oc2ccc(NC(=O)c3ccc(C(=O)N4CCC(Oc5ccc6sc(C)nc6c5)CC4)nc3)cn2)cc1` [Compound 7-20, N-(6-(4-acetylphenoxy)pyridin-3-yl)-6-(4-(2-methylbenzo[d]thiazol-5-yloxy)piperidine-1-carbonyl)nicotinamide] gave an EC50 of under 1000 nM.
